Data as given in ChEMBL document CHEMBL1153980, “Synthesis and anti-inflammatory activity of the major metabolites of imrecoxib” (Bioorg Med Chem Lett, 2009).

Assays:
[1] = molecular target: T1, Prostaglandin G/H synthase 2 (Mus musculus, UniProt Q05769); test: Inhibition of COX2 in mouse peritoneal macrophages
T1 sequence (Q05769 whole entry): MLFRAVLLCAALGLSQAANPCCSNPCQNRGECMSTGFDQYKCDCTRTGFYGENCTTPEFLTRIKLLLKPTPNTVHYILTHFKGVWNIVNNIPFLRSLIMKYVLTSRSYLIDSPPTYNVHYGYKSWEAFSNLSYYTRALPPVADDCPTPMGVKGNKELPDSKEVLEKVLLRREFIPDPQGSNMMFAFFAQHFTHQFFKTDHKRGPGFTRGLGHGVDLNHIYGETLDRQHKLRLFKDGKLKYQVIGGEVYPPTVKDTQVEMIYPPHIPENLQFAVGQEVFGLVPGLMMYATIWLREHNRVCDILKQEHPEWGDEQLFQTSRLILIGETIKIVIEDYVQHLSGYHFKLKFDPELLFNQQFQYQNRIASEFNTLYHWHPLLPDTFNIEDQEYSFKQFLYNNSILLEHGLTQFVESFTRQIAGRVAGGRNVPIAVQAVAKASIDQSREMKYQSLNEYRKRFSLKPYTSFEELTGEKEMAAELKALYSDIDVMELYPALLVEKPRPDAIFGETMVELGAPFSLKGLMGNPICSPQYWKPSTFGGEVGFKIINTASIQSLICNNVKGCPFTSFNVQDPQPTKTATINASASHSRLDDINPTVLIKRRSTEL

Rattus norvegicus [2] = test: Antiinflammatory activity in rat assessed as inhibition of carrageenan induced paw edema at 10 mg/kg after 2 hrs relative to control; type: functional
Mus musculus = species: Mus musculus; test: Selectivity index, ratio of IC50 for COX1 to IC50 for COX2 in mouse peritoneal macrophages
Rattus norvegicus [3] = test: Antiinflammatory activity in rat assessed as inhibition of carrageenan induced paw edema at 10 mg/kg after 3 hrs relative to control; type: functional
Rattus norvegicus [4] = test: Antiinflammatory activity in rat assessed as inhibition of carrageenan induced paw edema at 10 mg/kg after 4 hrs relative to control; type: functional
Rattus norvegicus [5] = test: Antiinflammatory activity in rat assessed as inhibition of carrageenan induced paw edema at 10 mg/kg after 1 hr relative to control; type: functional
[6] = molecular target: T2, Prostaglandin G/H synthase 1 (Mus musculus, UniProt P22437); test: Inhibition of COX1 in mouse peritoneal macrophages
T2 sequence (P22437 whole entry): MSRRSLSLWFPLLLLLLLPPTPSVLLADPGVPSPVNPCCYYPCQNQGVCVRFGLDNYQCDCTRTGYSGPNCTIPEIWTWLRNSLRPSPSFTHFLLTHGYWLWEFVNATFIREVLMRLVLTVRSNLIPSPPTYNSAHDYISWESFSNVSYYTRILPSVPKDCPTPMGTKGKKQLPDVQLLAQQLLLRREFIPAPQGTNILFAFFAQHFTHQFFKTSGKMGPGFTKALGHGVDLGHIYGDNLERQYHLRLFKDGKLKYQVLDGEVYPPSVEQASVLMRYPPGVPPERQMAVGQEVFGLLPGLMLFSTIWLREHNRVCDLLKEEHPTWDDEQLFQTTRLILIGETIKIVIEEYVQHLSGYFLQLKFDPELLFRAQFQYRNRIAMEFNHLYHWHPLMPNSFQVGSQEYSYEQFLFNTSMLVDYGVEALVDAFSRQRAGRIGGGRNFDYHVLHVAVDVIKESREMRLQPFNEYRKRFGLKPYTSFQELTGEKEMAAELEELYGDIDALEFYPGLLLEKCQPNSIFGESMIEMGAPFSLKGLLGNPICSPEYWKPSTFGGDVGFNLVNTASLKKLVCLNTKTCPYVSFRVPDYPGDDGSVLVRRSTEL

[7] = molecular target: Prostaglandin G/H synthase 1 (Mus musculus, UniProt P22437); test: Inhibition of calcimycin-induced COX1 activity

Row | IC50 [1] [nM] | Ratio IC50 (Mus musculus) | IC50 [6] [nM] | IC50 [7] [nM] | Compound | inhibition in vivo at 10 mg/kg (Rattus norvegicus [2]) [%] | inhibition in vivo at 10 mg/kg (Rattus norvegicus [3]) [%] | inhibition in vivo at 10 mg/kg (Rattus norvegicus [4]) [%] | inhibition in vivo at 10 mg/kg (Rattus norvegicus [5]) [%]
1 | 18 | 6.4 | 115 | – | CCCN1CC(c2ccc(S(C)(=O)=O)cc2)=C(c2ccc(C)cc2)C1=O [IMRECOXIB] | 39.5 | 50.4 | 50.4 | 31.3
2 | – | – | – | – | Cc1ccc(-c2cc(C(F)(F)F)nn2-c2ccc(S(N)(=O)=O)cc2)cc1 [CELECOXIB] | 36.6 | 44.7 | 49.3 | 23.5
3 | 14 | 6.2 | 87 | – | CCCN1CC(c2ccc(S(C)(=O)=O)cc2)=C(c2ccc(CO)cc2)C1=O | 46 | 56.1 | 63.9 | 26.5
4 | 410 | 6.8 | – | 2780 | CCCN1CC(c2ccc(S(C)(=O)=O)cc2)=C(c2ccc(C(=O)O)cc2)C1=O | 51.9 | 55.5 | 65.9 | 45.4
